{
  "source": "patent US20110110930A1",
  "about": "“Mitogen-Activated Protein Kinase Kinase Kinase 14 (MAP3K14) Polymorphisms As Indicators of Subject Outcome in Critically Ill Subjects” (priority 2007, published 2011)",
  "test_system": "ICU subjects with severe sepsis",
  "test": "Response to steroids in ICU severe sepsis subjects by MAP3K14 rs7222094 genotype (28-day survival, days alive and free of organ dysfunction)",
  "type": "in vivo, human",
  "details": "for SURV (28-Day Survival): % (N survived); for Delta SURV (28-Day Survival): treat (steroid-treated) minus cont (steroid untreated controls), difference of % survival; for Delta COAG.DAF (Days alive and free of coagulation dysfunction) / Delta CVS.DAF (Days alive and free of cardiovascular dysfunction) / Delta DA (Days alive) / Delta INR.DAF (Days alive and free of international normalized ratio >1.5) / Delta LIVER.DAF (Days alive and free of any type of hepatic dysfunction) / Delta PRESS.DAF (Days alive and free of any vasopressors) / Delta RENAL.DAF (Days alive and free of any type of renal dysfunction) / Delta RENSUP.DAF (Days alive and free of renal support) / Delta RESP.DAF (Days alive and free of respiratory dysfunction) / Delta VENT.DAF (Days alive and free of mechanical ventilators): treat minus cont (steroid untreated controls), difference of medians",
  "description": "All subjects admitted to the ICU of St. Paul's Hospital (SPH) were screened for study inclusion. SPH ICU is a mixed medical-surgical ICU in a tertiary care, university-affiliated teaching hospital. Subjects were included in the study if they met at least two out of four SIRS criteria: 1) fever (>38° C.) or hypothermia (<36° C.), 2) tachycardia (>90 beats/minute), 3) tachypnea (>20 breaths/minute), PaCO2<32 mm Hg, or need for mechanical ventilation, and 4) leukocytosis (total leukocyte count>12,000 mm^3) or leukopenia (<4,000 mm^3). Subjects were included in the analysis if they met the diagnostic criteria for septic shock (sepsis and cardiovascular dysfunction (as defined by Brussels scoring system) and one other organ dysfunction) on admission to the ICU. Subjects were excluded if blood could not be obtained for genotype analysis. Baseline characteristics (age, gender, admission APACHE II score (KNAUS W A. et al. Crit. Care Med. (1985) 13:818-829), together with medical vs. surgical diagnosis KNAUS W A. et al. Chest (1991) 100:1619-1636) were recorded on admission to the ICU. The full cohort meeting these criteria included 1072 Caucasian subjects and 153 Asian subjects.\nThe primary outcome variable evaluated in this study was 28-day mortality. Various organ dysfunctions were considered as secondary outcome variables. Baseline demographics recorded were age, gender, admission APACHE II score (KNAUS W A. et al. Crit. Care Med (1985) 13:818-829), and medical or surgical diagnosis on admission to the ICU (based on the APACHE III diagnostic codes) (KNAUS W A. et al. Chest (1991) 100:1619-1636) (TABLE 2B).\nAfter meeting the inclusion criteria, data were recorded for each 24-hour period (8 am to 8 am) for 28-days after ICU admission or until hospital discharge to evaluate organ dysfunction, the intensity of SIRS (Systemic Inflammatory Response Syndrome) and sepsis. Raw clinical and laboratory variables were recorded using the worst or most abnormal variable for each 24-hour period with the exception of Glasgow Coma Score, for which the best possible score for each 24-hour period was recorded. Missing data on the date of admission was assigned a normal value and missing data after day one was substituted by carrying forward the value from the previous day. When data collection for each patient was complete, all patient identifiers were removed from all records and the patient file was assigned a unique random number linked with the blood samples. The completed raw data file was used to calculate descriptive and severity of illness scores using standard definitions as described below.\nOrgan dysfunction was first evaluated at baseline and then daily using the Brussels score (SIBBALD W J. and VINCENT J L. Chest (1995) 107(2):522-7) (see TABLE 2A in General Methods Section). If the Brussels score was moderate, severe, or extreme dysfunction then organ dysfunction was recorded as present on that day. To correct for deaths during the observation period, we calculated the days alive and free of organ dysfunction (RUSSELL J A. et al. Crit. Care Med (2000) 28(10):3405-11 and BERNARD G R. et al. Chest (1997) 112(1):164-72) (TABLE 2C). For example, the severity of cardiovascular dysfunction was assessed by measuring days alive and free of cardiovascular dysfunction over a 28-day observation period. Days alive and free of cardiovascular dysfunction was calculated as the number of days after inclusion that a patient was alive and free of cardiovascular dysfunction over 28-days. Thus, a lower score for days alive and free of cardiovascular dysfunction indicates more cardiovascular dysfunction. The reason that days alive and free of cardiovascular dysfunction is preferable to simply presence or absence of cardiovascular dysfunction is that severe sepsis has a high acute mortality so that early death (within 28-days) precludes calculation of the presence or absence of cardiovascular dysfunction in dead subjects. […]",
  "key": {"[1]": {"details": "steroid-treated, rs7222094 TT (N = 74), Table 4.3 25th percentile/median/75th percentile, Table 4.5 median"}},
  "note": "“Also recorded” adds a separate entry of the source.",
  "data": [
    {"substance": "hydrocortisone [steroids]", "values": [
      {"measurement": "worse survival of steroid-treated than untreated subjects", "setting": "rs7222094 CC subjects, p=0.02023, Pearson's Chi-square", "value": 15, "unit": "%"},
      {"measurement": "28-day survival and organ dysfunction compared to controls (in words)", "setting": "steroid-treated subjects with rs7222094 CC", "value": "lower 28-day survival and more organ dysfunction than controls; also recorded: decreases 28-day survival"},
      {"measurement": "28-day survival and organ function compared to controls (in words)", "setting": "steroid-treated subjects with rs7222094 TT", "value": "increased survival and improved organ function; also recorded: improved compared with controls"},
      {"measurement": "SURV (28-Day Survival)", "setting": "steroid-treated, genotypes Combined (N = 355)", "value": "57% (203)"},
      {"measurement": "SURV (28-Day Survival)", "setting": "steroid-treated, rs7222094 CC (N = 122)", "value": "45% (55)"},
      {"measurement": "RENAL.DAF (Days alive and free of any type of renal dysfunction)", "setting": "steroid-treated, rs7222094 CC (N = 122), Table 4.3 25th percentile/median/75th percentile, Table 4.5 median", "value": 0, "unit": "days"},
      {"measurement": "SURV (28-Day Survival)", "setting": "steroid-treated, rs7222094 TC (N = 159)", "value": "59% (94)"},
      {"measurement": "DA (Days alive)", "setting": "[1]", "value": 28, "unit": "days"},
      {"measurement": "INR.DAF (Days alive and free of international normalized ratio >1.5)", "setting": "[1]", "value": 27, "unit": "days"},
      {"measurement": "LIVER.DAF (Days alive and free of any type of hepatic dysfunction)", "setting": "[1]", "value": 28, "unit": "days"},
      {"measurement": "Delta SURV (28-Day Survival)", "setting": "rs7222094 CC", "value": "−15.0"},
      {"measurement": "Delta SURV (28-Day Survival)", "setting": "rs7222094 TC", "value": "−7.0"},
      {"measurement": "Delta SURV (28-Day Survival)", "setting": "rs7222094 TT", "value": 3.0},
      {"measurement": "Delta COAG.DAF (Days alive and free of coagulation dysfunction)", "setting": "rs7222094 CC", "value": -11.5, "unit": "days"},
      {"measurement": "Delta CVS.DAF (Days alive and free of cardiovascular dysfunction)", "setting": "rs7222094 CC", "value": -1.0, "unit": "days"},
      {"measurement": "Delta DA (Days alive)", "setting": "rs7222094 CC", "value": -5.0, "unit": "days"},
      {"measurement": "Delta INR.DAF (Days alive and free of international normalized ratio >1.5)", "setting": "rs7222094 CC", "value": -6.0, "unit": "days"},
      {"measurement": "Delta LIVER.DAF (Days alive and free of any type of hepatic dysfunction)", "setting": "rs7222094 CC", "value": -6.5, "unit": "days"},
      {"measurement": "Delta PRESS.DAF (Days alive and free of any vasopressors)", "setting": "rs7222094 CC", "value": -11.0, "unit": "days"},
      {"measurement": "Delta RENAL.DAF (Days alive and free of any type of renal dysfunction)", "setting": "rs7222094 CC", "value": -4.0, "unit": "days"},
      {"measurement": "Delta RENSUP.DAF (Days alive and free of renal support)", "setting": "rs7222094 CC", "value": -9.0, "unit": "days"},
      {"measurement": "Delta RESP.DAF (Days alive and free of respiratory dysfunction)", "setting": "rs7222094 CC", "value": -12.0, "unit": "days"},
      {"measurement": "Delta VENT.DAF (Days alive and free of mechanical ventilators)", "setting": "rs7222094 CC", "value": -11.0, "unit": "days"},
      {"measurement": "Delta COAG.DAF (Days alive and free of coagulation dysfunction)", "setting": "rs7222094 TC", "value": -3.0, "unit": "days"},
      {"measurement": "Delta CVS.DAF (Days alive and free of cardiovascular dysfunction)", "setting": "rs7222094 TC", "value": -0.5, "unit": "days"},
      {"measurement": "Delta DA (Days alive)", "setting": "rs7222094 TC", "value": 0.0, "unit": "days"},
      {"measurement": "Delta INR.DAF (Days alive and free of international normalized ratio >1.5)", "setting": "rs7222094 TC", "value": -1.0, "unit": "days"},
      {"measurement": "Delta LIVER.DAF (Days alive and free of any type of hepatic dysfunction)", "setting": "rs7222094 TC", "value": 0.0, "unit": "days"},
      {"measurement": "Delta PRESS.DAF (Days alive and free of any vasopressors)", "setting": "rs7222094 TC", "value": -7.0, "unit": "days"},
      {"measurement": "Delta RENAL.DAF (Days alive and free of any type of renal dysfunction)", "setting": "rs7222094 TC", "value": -9.5, "unit": "days"},
      {"measurement": "Delta RENSUP.DAF (Days alive and free of renal support)", "setting": "rs7222094 TC", "value": -9.0, "unit": "days"},
      {"measurement": "Delta RESP.DAF (Days alive and free of respiratory dysfunction)", "setting": "rs7222094 TC", "value": -7.0, "unit": "days"},
      {"measurement": "Delta VENT.DAF (Days alive and free of mechanical ventilators)", "setting": "rs7222094 TC", "value": -11.0, "unit": "days"},
      {"measurement": "Delta COAG.DAF (Days alive and free of coagulation dysfunction)", "setting": "rs7222094 TT", "value": -0.5, "unit": "days"},
      {"measurement": "Delta CVS.DAF (Days alive and free of cardiovascular dysfunction)", "setting": "rs7222094 TT", "value": 1.0, "unit": "days"},
      {"measurement": "Delta DA (Days alive)", "setting": "rs7222094 TT", "value": 0.0, "unit": "days"},
      {"measurement": "Delta INR.DAF (Days alive and free of international normalized ratio >1.5)", "setting": "rs7222094 TT", "value": 0.0, "unit": "days"},
      {"measurement": "Delta LIVER.DAF (Days alive and free of any type of hepatic dysfunction)", "setting": "rs7222094 TT", "value": 0.0, "unit": "days"},
      {"measurement": "Delta PRESS.DAF (Days alive and free of any vasopressors)", "setting": "rs7222094 TT", "value": -2.0, "unit": "days"},
      {"measurement": "Delta RENAL.DAF (Days alive and free of any type of renal dysfunction)", "setting": "rs7222094 TT", "value": -5.5, "unit": "days"},
      {"measurement": "Delta RENSUP.DAF (Days alive and free of renal support)", "setting": "rs7222094 TT", "value": 0.0, "unit": "days"},
      {"measurement": "Delta RESP.DAF (Days alive and free of respiratory dysfunction)", "setting": "rs7222094 TT", "value": -2.0, "unit": "days"},
      {"measurement": "Delta VENT.DAF (Days alive and free of mechanical ventilators)", "setting": "rs7222094 TT", "value": -2.0, "unit": "days"}
    ]}
  ]
}
